Six compounds from ChEMBL document CHEMBL1150721, “Hepatoprotective activity of polyphenolic compounds from Cynara scolymus against CCl4 toxicity in isolated rat hepatocytes” (1987) can be followed below.

For assay [1], the system named is Hepatocyte. Description: Hepatoprotective activity against carbon tetrachloride-induced hepatotoxicity in fasted Sprague-Dawley rat hepatocytes assessed as serum glutamic oxaloacetic transaminase release at 0.01 mg/ml administered before 10 mins of carbon tetrachloride challenge measured after 30 mins. Format: functional.
The subject of assay [2] is Hepatocyte. Description: Hepatoprotective activity against carbon tetrachloride-induced hepatotoxicity in fasted Sprague-Dawley rat hepatocytes assessed as serum glutamic oxaloacetic transaminase release at 0.1 mg/ml administered before 10 mins of carbon tetrachloride challenge measured after 30 mins. In kind it is functional.
Assay [3] has as its system Hepatocyte. Description: Hepatoprotective activity against carbon tetrachloride-induced hepatotoxicity in fasted Sprague-Dawley rat hepatocytes assessed as serum glutamic oxaloacetic transaminase release at 1 mg/ml administered before 10 mins of carbon tetrachloride challenge measured after 30 mins. In kind it is functional.
Assay [4] relates to Hepatocyte. Description: Hepatoprotective activity against carbon tetrachloride-induced hepatotoxicity in fasted Sprague-Dawley rat hepatocytes assessed as serum glutamic oxaloacetic transaminase release at 3 mg/ml administered before 10 mins of carbon tetrachloride challenge measured after 30 mins. Format: functional.
The subject of assay [5] is Hepatocyte. Description: Hepatoprotective activity against carbon tetrachloride-induced hepatotoxicity in fasted Sprague-Dawley rat hepatocytes assessed as serum glutamic pyruvate transaminase release at 0.01 mg/ml administered before 10 mins of carbon tetrachloride challenge measured after 30 mins. Format: functional.
The test system of assay [6] is Hepatocyte. Description: Hepatoprotective activity against carbon tetrachloride-induced hepatotoxicity in fasted Sprague-Dawley rat hepatocytes assessed as serum glutamic pyruvate transaminase release at 0.1 mg/ml administered before 10 mins of carbon tetrachloride challenge measured after 30 mins. In kind it is functional.
The subject of assay [7] is Hepatocyte. Description: Hepatoprotective activity against carbon tetrachloride-induced hepatotoxicity in fasted Sprague-Dawley rat hepatocytes assessed as serum glutamate pyruvate transaminase release at 1 mg/ml administered before 10 mins of carbon tetrachloride challenge measured after 30 mins. Format: functional.
The subject of assay [8] is Hepatocyte. Description: Hepatoprotective activity against carbon tetrachloride-induced hepatotoxicity in fasted Sprague-Dawley rat hepatocytes assessed as serum glutamic pyruvate transaminase release at 3 mg/ml administered before 10 mins of carbon tetrachloride challenge measured after 30 mins. In kind it is functional.
A short description of assay [9]: Effect on glutamate oxaloacetic transaminase activity at 1 mg/ml.
For assay [10], the target named is T1, Alanine aminotransferase 1 (Homo sapiens) (UniProt P24298).
T1 sequence (whole entry): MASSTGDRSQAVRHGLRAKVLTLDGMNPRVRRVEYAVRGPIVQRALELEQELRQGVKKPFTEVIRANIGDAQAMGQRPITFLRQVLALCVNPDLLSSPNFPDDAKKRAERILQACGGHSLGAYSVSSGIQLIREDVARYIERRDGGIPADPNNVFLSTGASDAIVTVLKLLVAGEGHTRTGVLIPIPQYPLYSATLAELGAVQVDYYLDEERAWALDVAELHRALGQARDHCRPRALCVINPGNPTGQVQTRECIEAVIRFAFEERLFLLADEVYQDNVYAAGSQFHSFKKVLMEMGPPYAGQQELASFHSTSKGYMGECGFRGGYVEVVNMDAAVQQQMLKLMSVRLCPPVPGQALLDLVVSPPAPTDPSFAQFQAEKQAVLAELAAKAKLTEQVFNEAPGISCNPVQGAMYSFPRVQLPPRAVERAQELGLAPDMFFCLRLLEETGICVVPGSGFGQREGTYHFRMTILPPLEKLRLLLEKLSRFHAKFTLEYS
Description: Effect on glutamic pyruvate transaminase activity at 1 mg/ml.

Assay [11] is described as follows: Effect on glutamate oxaloacetic transaminase activity at 0.1 mg/ml.
The target of assay [12] is T1, Alanine aminotransferase 1 (Homo sapiens). Description: Effect on glutamic pyruvate transaminase activity at 0.1 mg/ml.
Assay [13] can be described thus: Effect on glutamate oxaloacetic transaminase activity at 3 mg/ml.
For assay [14], the target named is T1, Alanine aminotransferase 1 (Homo sapiens). Description: Effect on glutamic pyruvate transaminase activity at 3 mg/ml.

The structures appear in SMILES notation.

As for `O=C(O)/C=C/c1ccc(O)c(O)c1` [CAFFEIC ACID], the Activity in [1] amounted to 21%; in assay [2], 19.9%; in [3], 18.6%; in assay [4], 22.1%; in assay [5], 19%; in assay [6], 17.5%. Besides, the Activity turned out to be 13.4% in [7], 16.7% in assay [8], 123 U/L in assay [9] and 97 U/L in [10].
As for `O=C(/C=C/c1ccc(O)c(O)c1)O[C@@H]1C[C@](O)(C(=O)O)C[C@@H](O)[C@H]1O` [CHLOROGENIC ACID], the Activity in [1] is on record as 19.5%; in assay [2], 19.4%; in assay [3] it was 20.6%; in assay [4] it was 20.6%; in [5] it was 16.7%; in [6], 15.3%. Further, the Activity was 17.7% in assay [7] and 15.9% in assay [8].
On to `Oc1cc(O)c2c(c1)O[C@H](c1ccc(O)c(O)c1)[C@@H](O)C2` [CIANIDANOL], for which the Activity in assay [1] was determined as 16.8%; in assay [2] it was 18.3%; in assay [3], 21%; in assay [4], 22.4%; in [5], 13.5%; in assay [6], 14.3%. For the same compound, the Activity in assay [7] is 17.3%; in assay [8], 20.1%; in [11], 127 U/L; in assay [12] it was 103 U/L.
`O=C(/C=C/c1ccc(O)c(O)c1)O[C@@H]1C[C@@](OC(=O)/C=C/c2ccc(O)c(O)c2)(C(=O)O)C[C@@H](O)[C@@H]1O` [CYNARIN]: the Activity is given as 17.6% in [1]; 17.9% in assay [2]; 17.6% in [3]; 16.5% in [4]; 16.3% in assay [5]; 16.8% in assay [6]. Besides, the Activity in [7] was 13.9%; in [8], 13.3%; in assay [9] it was 126 U/L; in assay [13], 123 U/L; in assay [10], 103 U/L; in assay [14] it was 110 U/L.
Consider `O=c1cc(-c2ccc(O)c(O)c2)oc2cc(O[C@@H]3O[C@H](CO)[C@@H](O)[C@H](O)[C@H]3O)cc(O)c12` [GALUTEOLIN], for which the Activity worked out at 21.9% in assay [1]; 20.4% in assay [2]; 21.1% in [3]; 22.8% in assay [4]; 15.9% in assay [5]; 14.9% in assay [6]. In addition, the Activity in assay [7] came out at 15.9%; in assay [8], 20.9%; in assay [9], 139 U/L; in assay [10], 111 U/L.
As for `O=C(O)[C@]1(O)C[C@@H](O)[C@@H](O)[C@H](O)C1` [QUINIC ACID], the Activity is on record as 18.4% in [1]; 21.9% in assay [2]; 21.2% in [3]; 21.2% in assay [4]; 15.5% in assay [5]; 18.1% in assay [6]. In addition, the Activity in assay [7] is listed as 17.4%; in assay [8] it was 17%.
